Measured values: patent publication EP4660190A1, “PHARMACEUTICALLY ACCEPTABLE SALT OF COMPOUND AND PREPARATION METHOD THEREFOR” (Jiangsu Chia Tai Fenghai Pharmaceutical Co., Ltd., priority 2023, dated 2024)
Read-outs that look alike come from different tables or passages of the source. Marks after values point to notes of the source that are not given here.

Experiments:
[1] = Pharmacokinetics of butylphthalide in rats (literature values); conditions: rat; calculated based on the literature value of AUC0-inf (p.o. 60 mg/kg vs i.v. 10 mg/kg)
[2] = test system: Middle cerebral artery occlusion (MCAO) models of SD rats; test: Rat MCAO model, single-dose administration, TTC staining infarct size; format: in vivo; conditions: 24 h; for Infarct Size (%): Mean±SD
Experimental: 3: Pharmacodynamic study in Rat Middle Cerebral Artery Occlusion (MCAO) Model (Single-Dose Administration) Middle cerebral artery occlusion (MCAO) models of SD rats were constructed using the suture occlusion method to evaluate the protection effect of the compound on neurons of rats after cerebral ischemia-reperfusion. After anaesthesia induction with 3.0% isoflurane in SD rats (240-270g), the operation was performed, and the right-side neck area was dissected to reveal the right common carotid artery (CCA), external carotid artery (ECA) and internal carotid artery (ICA). The ECA was ligated. The ICA was temporarily occluded. Sutures were threaded at both the proximal end and the distal end of CCA. The distal end was securely ligated, and a loosely tied knot was placed at the proximal end. A small incision was made between the two ligatures on the CCA. A No. 4-0 suture was inserted through the incision of CCA and slowly and gently pushed into the ICA. The threading was halted temporarily when reaching the artery clamp of ICA. The pre-ligation suture was further tightened. The artery clamp blocking the blood flow in the ICA was removed, allowing the suture occlusion to be advanced into the ICA until it entered the intracranial region. […] The insertion was stopped at the moment, and the time was recorded. The artery clamp on the CCA was removed and the incision was closed after no active bleeding was observed. The ischemic rats were placed at room temperature to keep their body temperature at 37°C, and anesthesia induction could be carried out 120min later. The suture was slowly and gradually withdrawn when the rats were maintained under anesthesia, so that the proximal end of the suture returned to the ECA, thereby initiating reperfusion of the middle cerebral artery. Animals were administered for a single dose immediately after reperfusion (within 10min). 3 groups were established, namely a model control group, a Compound (I) i.v. group (30mg/kg), and a Compound (I) p.o. group (60mg/kg). Animals were euthanized 24 h after ischemia reperfusion, and the brains were rapidly taken, frozen, and dissected for TTC staining. The normal tissues were rose-red after staining, and the infarcted tissues were white. The infarct size (%) percentage, calculated as the weight of infarcted tissues to the weight of the whole brain, is used to evaluate the degree of cerebral ischemic injury in rats.

[3] = Pharmacokinetic test in rats; format: in vivo, Male SD rats; conditions: rat; p.o. 10 mg/kg vs i.v. 1 mg/kg
Experimental: Male SD rats (weighing 180-260g) were administered with the compound of formula (I) intravenously at a dose of 1.0 mg/kg via tail vein injection, and orally at a dose of 10.0 mg/kg. Each group consisted of 3 animals. The solvent for administration was a solution of 5% DMSO + 5% polyethoxylated castor oil (Cremophor EL) in normal saline. The rats were fasted for about 12 h before administration and were given ad libitum access to food 4 h after administration, and water was available all the time. Blood was collected from the orbit at about 0.2 mL before administration and 5 min, 15 min, 30 min, 1 h, 2 h, 4 h, 6 h, 8 h, and 24 h after administration. The samples were placed in EDTA-K2 anticoagulant EP tubes in an ice bath, and subjected to low-speed centrifugation at 4°C and 3500 rpm for 10 min to isolate plasma, which was then stored at -20°C before analysis. The plasma concentration of the compound of formula (I) was determined using liquid chromatography-tandem mass spectrometry (LC-MS/MS). Pharmacokinetic parameters were calculated from the analysis results of the samples using WinNonlin software.

[4] = test system: MPTP-induced Parkinson's disease model mice; test: MPTP-induced mouse Parkinson's disease model, grip strength test; conditions: Before Modeling, mean ± SD
[5] = test system: MPTP-induced Parkinson's disease model mice; test: MPTP-induced mouse Parkinson's disease model, pole test; format: in vivo, C57 mice; conditions: mean ± SD
[6] = test system: TDP-43-A315T transgenic mice of ALS model; test: TDP-43-A315T ALS mice, muscle tone test; format: in vivo; conditions: Mean±SEM
[7] = Hygroscopicity test (Chinese Pharmacopoeia Section 9103); format: physicochemical; conditions: 25°C, 80% relative humidity, 24 hours
[8] = for Total impurities: Table 4
SOD1 G93A ALS mice = test: SOD1-G93A ALS mice, survival; format: in vivo; conditions: 40 mg/kg dose group
[9] = test system: rat spinal cord injury model; test: Rat spinal cord injury model, Neurofilament 200 (NF200) expression; format: in vivo, Male SD rats; conditions: mean±SD, n=6
[10] = test system: MPTP-induced Parkinson's disease model mice; test: MPTP-induced mouse Parkinson's disease model, striatal dopamine (DOPA) detection; format: in vivo, C57 mice; conditions: striatum, four weeks, mean ± SD

CCCCC1OC(=O)c2ccccc21 (stereo not shown) [Butylphthalide, butylphthalide, reference compound]
F [1]: 16.6* %

CCC/C(O)=C1/C(=O)Oc2ccccc21 [Compound (I)]
Cerebral infarction inhibition rate (%) ([2]; i.v. 30mg/kg single dose after reperfusion): 37.1%
Infarct Size (%) ([2]; i.v. 30mg/kg single dose after reperfusion, 30 mg/kg): 13.61±3.66 %
Infarct Size (%) ([2]; i.v. 30mg/kg single dose after reperfusion, listed as compound (I), 30 mg/kg): 13.61±3.66%
Cerebral infarction inhibition rate (%) ([2]; p.o. 60mg/kg single dose after reperfusion): 31.2%
Infarct Size (%) ([2]; p.o. 60mg/kg single dose after reperfusion, 60 mg/kg): 14.88±5.11 %
Infarct Size (%) ([2]; p.o. 60mg/kg single dose after reperfusion, listed as compound (I), 60 mg/kg): 14.88±5.11%
F [3]: 144.2%

(Z)-3-(1-hydroxybutenyl)benzofuran-2-one tromethamine salt [Example 10]
Grip Strength Test ([4]; high dose 20 mg/kg group): 278.44 ± 8.96 g
Grip Strength Test ([4]; low dose 5 mg/kg group): 276.97 ± 6.40 g
Pole test results ([5]; high dose 20 mg/kg daily, four weeks, Study Endpoint, listed as Tromethamine salt from Example 10, 20 mg/kg): 8.83 ± 1.77 s
Pole test results ([5]; high dose 20 mg/kg daily, four weeks, Study Endpoint, listed as tromethamine salt from Example 10, 20 mg/kg): 8.83 ± 1.77 s
Pole test results ([5]; high dose 20 mg/kg group, Before Modeling): 9.51 ± 1.66 s
Pole test results ([5]; low dose 5 mg/kg daily, four weeks, Study Endpoint, listed as Tromethamine salt from Example 10, 5 mg/kg): 9.67 ± 1.48 s
Pole test results ([5]; low dose 5 mg/kg daily, four weeks, Study Endpoint, listed as tromethamine salt from Example 10, 5 mg/kg): 9.67 ± 1.48 s
Pole test results ([5]; low dose 5 mg/kg group, Before Modeling): 9.40 ± 1.51 s
Muscle Tone ([6]; female mice, 20mg/kg, animal age 6 weeks): 165.4 ± 7.815 g
Muscle Tone ([6]; female mice, 20mg/kg, animal age 8 weeks): 190.2 ± 14.13 g
Muscle Tone ([6]; female mice, 20mg/kg, animal age 10 weeks): 153.7 ± 8.355 g
Muscle Tone ([6]; female mice, 20mg/kg, animal age 12 weeks): 159.4 ± 13.21 g
Muscle Tone ([6]; female mice, 20mg/kg, animal age 13 weeks): 149.8 ± 4.815 g
Muscle Tone ([6]; female mice, 20mg/kg, animal age 14 weeks): 150.9 ± 6.940 g
Muscle Tone ([6]; female mice, 20mg/kg, animal age 16 weeks): 159.5 ± 7.125 g
Muscle Tone ([6]; female mice, 40mg/kg p.o., animal age 6 weeks): 155.8 ± 3.677 g
Muscle Tone ([6]; female mice, 40mg/kg p.o., animal age 8 weeks): 190.6 ± 10.24 g
Muscle Tone ([6]; female mice, 40mg/kg p.o., animal age 10 weeks): 147.8 ± 7.822 g
Muscle Tone ([6]; female mice, 40mg/kg p.o., animal age 12 weeks): 154.3 ± 6.584 g
Muscle Tone ([6]; female mice, 40mg/kg p.o., animal age 13 weeks): 148.1 ± 4.851 g
Muscle Tone ([6]; female mice, 40mg/kg p.o., animal age 14 weeks): 161.6 ± 2.816 g
Muscle Tone ([6]; female mice, 40mg/kg p.o., animal age 16 weeks): 155.2 ± 3.339 g
Muscle Tone ([6]; male mice, 40mg/kg p.o., animal age 6 weeks): 155.4 ± 6.495 g
Muscle Tone ([6]; male mice, 40mg/kg p.o., animal age 8 weeks): 170.9 ± 6.777 g
Muscle Tone ([6]; male mice, 40mg/kg p.o., animal age 10 weeks): 155.6 ± 8.359 g
Muscle Tone ([6]; male mice, 40mg/kg p.o., animal age 12 weeks): 123.1 ± 18.21 g
Muscle Tone ([6]; male mice, 40mg/kg p.o., animal age 13 weeks): 120.8 ± 12.91 g
Muscle Tone ([6]; male mice, 40mg/kg p.o., animal age 14 weeks): 89.72 ± 19.04 g
Muscle Tone ([6]; male mice, 60mg/kg p.o., animal age 6 weeks): 175.7 ± 7.244 g
Muscle Tone ([6]; male mice, 60mg/kg p.o., animal age 8 weeks): 177.0 ± 5.555 g
Muscle Tone ([6]; male mice, 60mg/kg p.o., animal age 10 weeks): 155.93 ± 4.345 g
Muscle Tone ([6]; male mice, 60mg/kg p.o., animal age 12 weeks): 136.8 ± 16.00 g
Muscle Tone ([6]; male mice, 60mg/kg p.o., animal age 13 weeks): 149.8 ± 3.710 g
Muscle Tone ([6]; male mice, 60mg/kg p.o., animal age 14 weeks): 149.8 ± 2.045 g
hygroscopicity [7]: non-hygroscopic
weight gain percentage [7]: 0.0%
Total impurities ([8]; 0 h): 0.08
Total impurities ([8]; High Humidity 75%, 10 d): 0.04
Total impurities ([8]; High Humidity 92.5%, 10 d): 0.04
Total impurities ([8]; High temperature 60°C, 10 d): 0.03
Total impurities ([8]; Light (packaged), 10 d): 0.04
Total impurities ([8]; Light (unwrapped), 10 d): 0.03
chemical stability ([8]; high temperature (60°C), light (unwrapped, packaged), high humidity (92.5%, 75%)): good chemical stability
extension of survival (SOD1 G93A ALS mice): approximately 15 days
Positive Count (number per field of view) ([9]; high dose 20 mg/kg): 30.3±7.4 number per field of view
Positive Count (number per field of view) ([9]; low dose 5 mg/kg): 22.5± 7.5 number per field of view
DOPA ([10]; high dose 20 mg/kg daily, listed as Tromethamine salt from Example 10, 20 mg/kg): 2731.07 ± 868.18 ng/g
DOPA ([10]; high dose 20 mg/kg daily, listed as tromethamine salt from Example 10, 20 mg/kg): 2731.07 ± 868.18 ng/g
DOPA ([10]; low dose 5 mg/kg daily, listed as Tromethamine salt from Example 10, 5 mg/kg): 837.82±372.19^& ng/g
DOPA ([10]; low dose 5 mg/kg daily, listed as tromethamine salt from Example 10, 5 mg/kg): 837.82 ± 372.19 ng/g
